In data set [1] the target is T1, GIPR (CHO-K1-hGIPR cells) (Homo sapiens, UniProt P48546).
T1 construct: host or cells: CHO-K1
T1 sequence (P48546 22-466): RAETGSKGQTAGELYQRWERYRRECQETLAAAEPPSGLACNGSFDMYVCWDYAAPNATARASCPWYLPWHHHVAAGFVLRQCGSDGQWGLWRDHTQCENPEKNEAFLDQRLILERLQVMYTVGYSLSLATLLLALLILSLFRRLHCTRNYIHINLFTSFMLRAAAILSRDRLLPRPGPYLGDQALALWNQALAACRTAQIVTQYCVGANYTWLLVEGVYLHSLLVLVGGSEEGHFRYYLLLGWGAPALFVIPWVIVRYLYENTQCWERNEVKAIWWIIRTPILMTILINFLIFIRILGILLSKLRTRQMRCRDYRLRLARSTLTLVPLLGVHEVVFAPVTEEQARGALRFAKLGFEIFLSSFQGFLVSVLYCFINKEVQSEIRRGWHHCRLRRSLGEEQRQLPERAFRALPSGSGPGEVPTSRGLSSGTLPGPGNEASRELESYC
The data set is described as follows: FACS binding assay. Particulars: read-out: pIC50 Category (converted). Put shortly: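 CHO-K1 cells stably expressing human GIPR were detached with Accutase, suspended at 500.000 cells per mL in PBS with 1% FCS, and washed ice-cold. Bound peptide was detected with 1 μg/mL APC-streptavidin for 30 min on ice.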
In general terms: Flow cytometry measures light scatter and fluorescence of single cells or particles in a stream.

Data set [2] deals with T2, human GIP receptor (bioGIPR) (Homo sapiens, UniProt P48546).
T2 construct: Biotinylate extracellular of the human GIP receptor (bioGIPR, Proteros biostructures GmbH, lot #02/2b); purchased Proteros biostructures GmbH lot #02/2b
T2 sequence (P48546 22-138 limits assumed): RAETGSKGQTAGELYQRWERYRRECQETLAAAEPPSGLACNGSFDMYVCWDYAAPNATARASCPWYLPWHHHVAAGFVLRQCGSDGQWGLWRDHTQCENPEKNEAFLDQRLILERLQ
The data set is described as follows: Surface plasmon resonance (SPR) based binding assay. Particulars: Single Cycle Kinetic mode, 25° C. Put shortly: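 Binding was measured at 25 °C by single-cycle kinetics against a reference flow cell, with blank-run and drift correction, after capturing biotinylated GIPR extracellular domain to ~3500 RU. Running buffer: HBST, 0.1% DMSO. A 1:1 Langmuir model gave kinetic rates, KD, t1/2 and pKD.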
A general note: Surface plasmon resonance follows binding to a sensor surface in real time, without labels.

The nature of data set [3]: Plasma stability assay, mouse plasma. Particulars: 37° C., % intact compound remaining after 4 h or 24 h. In kind it is in vitro ADME. The method, then:
In order to determine the stability of selected compounds of the invention in human and mouse plasma, a plasma stability assay was carried out. Such plasma stability assay measures degradation of compounds of the present invention in blood plasma. This is an important characteristic of a compound as compounds, with the exception of pro-drugs, which rapidly degrade in plasma, generally show poor in vivo efficacy. […] The stability is sufficient for the diagnostic, therapeutic and theragnostic use of these compounds according to the present invention.
The plasma stability samples were prepared by spiking 50 μL plasma aliquots (all K2EDTA) with 1 μL of a 0.5 mM compound stock solution in DMS0. After vortexing the samples were incubated in a Thermomixer at 37° C. for 0, 4 and 24 hours. After incubation the samples were stored on ice until further treatment. All samples were prepared in duplicates.
A suitable internal standard was added to each sample (1 μL of a 0.5 mM stock solution in DMSO). Protein precipitation was performed by addition of 250 μL of acetonitrile containing 1% trifluoroacetic acid. After incubation at room temperature for 30 min the precipitate was separated by centrifugation and 150 μL of the supernatant was diluted with 150 μL of 1% aqueous formic acid.
Additionally, recovery was determined by spiking a pure plasma sample that only contained the internal standard after treatment with a certain amount of the compound.
Carry-over was evaluated by analysis of a blank sample (20% acetonitrile) after the highest calibration sample.

Data set [4] deals with human Gastric Inhibitory Peptide Receptor (GIPR) (human) (UniProt P48546). The data set is described as follows: FACS competition vs biotinylated GIP-057 on CHO-K1-hGIPR cells; category D: pIC50 <=6.0.
Setting [5] is: competition with 20 nM GIP-057, 4° C., 1 hour.

Where two headings read alike, the source gives them in different places. *1 amine or outer side, *2 acyl side, *3 side chain or, on linkers, in order; H or OH if unused. Where a SMILES comes first, the peptide text is derived from it. Bridges are numbered along the chain shown (N, C = ends). [ ]: non-standard residue; d: D form. The star is where a group is joined. ξ: configuration not given here. Ttds = 1,13-diamino-4,7,10-trioxatridecan-succinamic acid, NCCCOCCOCCOCCCNC(=O)CCC(=O)*; X3 = O=C(O)CN1CCN(CC(=O)O)CCN(CC(=O)NCCCOCCOCCOCCCN*)CCN(CC(=O)O)CC1; NH(1-deoxy-D-glucityl) = OC[C@@H](O)[C@@H](O)[C@H](O)[C@@H](O)CN*; DOTA = O=C(O)CN1CCN(CC(=O)O)CCN(CC(=O)*)CCN(CC(=O)O)CC1; Trp(5-Cl) = N[C@@H](Cc1c[nH]c2ccc(Cl)cc12)C(=O)O; Pyridine(2,6-diCH2) = c1cc(C[*:1])nc(C[*:2])c1; mXylylene = c1cc(C[*:1])cc(C[*:2])c1; X7 = c1cc(CSCCN[*:2])cc(C[*:1])c1; Hyp = O=C(O)[C@@H]1C[C@@H](O)CN1; X1 = O=C(CN1CCC(N[*:1])CC1)[*:2]; Cysteamide = C(CS[*:3])N[*:1]; Suc = O=C(CCC(=O)[*:2])[*:1]; Thp = NC1(C(=O)O)CCOCC1; Aib = CC(C)(N)C(=O)O; ξP = O=C(O)C1CCCN1 Bounds are passed on as bounds.

With `CC[C@H](C)[C@@H]1NC(=O)[C@H](CC(C)C)NC(=O)C2(CCOCC2)NC(=O)[C@@H](NC(=O)[C@@H](CC(C)C)NC(=O)[C@H](CCC(=O)O)NC(=O)[C@@H]2C[C@@H](O)CN2C(=O)[C@H](Cc2c[nH]c3ccc(Cl)cc23)NC(=O)[C@H](Cc2c[nH]c3ccccc23)NC(=O)[C@H](CC(=O)O)NC(=O)CN2CCC(NC(=O)[C@@H](CCC(=O)NC[C@H](O)[C@@H](O)[C@H](O)[C@H](O)CO)NC(=O)CN3CCN(CC(=O)O)CCN(CC(=O)O)CCN(CC(=O)O)CC3)CC2)CSCc2cccc(n2)CSC[C@@H](C(=O)NC2CCN(CC(=O)N[C@H](CCC(=O)NC[C@H](O)[C@@H](O)[C@H](O)[C@H](O)CO)C(N)=O)CC2)NC1=O` [GIP-005, DOTA-glu(AGLU)-APAc-Asp-Trp-5Clw-Hyp-Glu-leu-[Cys(2Lut)-Thp-Leu-Ile-Cys]-APAc-glu(AGLU)-NH2] ({DOTA}-[dE](NH(1-deoxy-D-glucityl))[X1]DW[Trp(5-Cl)][Hyp]E[dL]C[Thp]LIC[X1][dE](NH(1-deoxy-D-glucityl))-NH2; linker 9-13 via Pyridine(2,6-diCH2)), in data set [1] (setting [5]), the IC50 was < 10 nM. In addition, the “t1/2 Category” value in data set [2] (SPR dissociation half-life) is “A (t1/2 values>15 min)”. In data set [2] (SPR, 1:1 Langmuir binding model, read-out: pKD Category (converted)), the Kd is < 1 nM. Further, the “Mouse plasma stability category” value in data set [3] is recorded as “A (>80% intact after 24 hours)”.

On to `CC[C@H](C)[C@@H]1NC(=O)[C@H](CC(C)C)NC(=O)C(C)(C)NC(=O)[C@@H](NC(=O)[C@@H](CC(C)C)NC(=O)[C@H](CCC(=O)O)NC(=O)[C@@H]2CCCN2C(=O)[C@H](Cc2c[nH]c3ccccc23)NC(=O)[C@H](Cc2c[nH]c3ccccc23)NC(=O)[C@H](CC(=O)O)NC(=O)CCC(=O)NCCCOCCOCCOCCCNC(=O)CN2CCN(CC(=O)O)CCN(CC(=O)O)CCN(CC(=O)O)CC2)CSCc2cccc(c2)CSC[C@@H](C(N)=O)NC1=O` [GIP-128, DOTA-Ttds-Asp-Trp-Trp-Pro-Glu-leu-[Cys(3MeBn)-Aib-Leu-Ile-Cys]-NH2] ({X3-Suc}-DWWPE[dL]C[Aib]LIC-NH2; linker 7-11 via mXylylene), for which the IC50 in data set [1] (setting [5]) is 10 to 79.4 nM. Also, in data set [3], the “Mouse plasma stability category” value is “B (>80% intact after 4 hours)”.

Consider `CC[C@H](C)[C@@H]1NC(=O)[C@H](CC(C)C)NC(=O)C(C)(C)NC(=O)[C@@H](NC(=O)[C@@H](CC(C)C)NC(=O)[C@H](CCC(=O)O)NC(=O)[C@@H]2CCCN2C(=O)[C@H](Cc2c[nH]c3ccccc23)NC(=O)[C@H](Cc2c[nH]c3ccccc23)NC(=O)[C@H](CC(=O)O)NC(=O)CCC(=O)NCCCOCCOCCOCCCNC(=O)CN2CCN(CC(=O)O)CCN(CC(=O)O)CCN(CC(=O)O)CC2)CSCc2cccc(c2)CSCCNC1=O` [GIP-129, DOTA-Ttds-Asp-Trp-Trp-Pro-Glu-leu-[Cys(3MeBn)-Aib-Leu-Ile-AET]] ({X3-Suc}-DWWPE[dL]C[Aib]LI; linker 7-C via X7), for which, in data set [1] (setting [5]), the IC50 is 10 to 79.4 nM. Besides, the “Mouse plasma stability category” value in data set [3] is “B (>80% intact after 4 hours)”.

Take `CC[C@H](C)[C@@H]1NC(=O)[C@H](CC(C)C)NC(=O)C(C)(C)NC(=O)[C@@H](NC(=O)[C@H](CC(C)C)NC(=O)[C@@H](CCC(=O)O)NC(=O)C2CCCN2C(=O)[C@H](Cc2c[nH]c3ccccc23)NC(=O)[C@H](Cc2c[nH]c3ccccc23)NC(=O)[C@H](CC(=O)O)NC(=O)CCC(=O)NCCCOCCOCCOCCCNC(=O)CN2CCN(CC(=O)O)CCN(CC(=O)O)CCN(CC(=O)O)CC2)CSCc2cccc(c2)CSC[C@@H](C(N)=O)NC1=O` (stereo partly drawn) [GIP-270, DOTA-Ttds-Asp-Trp-Trp-Pro-glu-Leu-[Cys(3MeBn)-Aib-Leu-Ile-Cys]-NH2] ({X3-Suc}-DWW[ξP][dE]LC[Aib]LIC-NH2; linker 7-11 via mXylylene): the IC50 in data set [1] (competition with 20 nM GIP-057, 4° C. for 1 hour) is 100 to 794 nM. Besides, the “Mouse plasma stability category” value in data set [3] is “B (>80% intact after 4 hours)”.

Turning to “Ac-Asp-Trp-1Ni-Pro-Glu-Thi-[Cys(3MeBn)-Aib-Leu-Ile-Cys]-NH2 (peptide)”, the pIC50 in data set [4] is < 6 pic50.

On to “HO-Succinyl-Trp-Trp-Pro-Glu-leu-[Cys(3MeBn)-ala-Leu-Ile-Cys]-Ttds-Lys(DOTA)-NH2 (peptide)”, for which the pIC50 in data set [4] was < 6 pic50.

With {DOTA-Ttds}-[dL]DP[Trp(5-Cl)]WLCE[Aib]I[Cysteamide] (linker 7-11 via mXylylene) [DOTA-Ttds-leu-Asp-Pro-5Clw-Trp-Leu-[Cys(3MeBn)-Glu-Aib-Ile-AET]], the pIC50 in data set [4] was < 6 pic50.

B1: Ac-Asp-Trp-5Clw-Hyp-Glu-leu-[Cys(2Lut)-Thp-Leu-Trp-Cys]-NH2 (peptide)
peptide: Ac-DW[Trp(5-Cl)][Hyp]E[dL]C[Thp]LWC-NH2
modifications: linker 7-11 via Pyridine(2,6-diCH2)
SMILES: CC(=O)N[C@@H](CC(=O)O)C(=O)N[C@@H](Cc1c[nH]c2ccccc12)C(=O)N[C@@H](Cc1c[nH]c2ccc(Cl)cc12)C(=O)N1C[C@H](O)C[C@H]1C(=O)N[C@@H](CCC(=O)O)C(=O)N[C@H](CC(C)C)C(=O)N[C@H]1CSCc2cccc(n2)CSC[C@@H](C(N)=O)NC(=O)[C@H](Cc2c[nH]c3ccccc23)NC(=O)[C@H](CC(C)C)NC(=O)C2(CCOCC2)NC1=O
Consider B1, for which the pIC50 in data set [4] was < 6 pic50.
